ChEMBL document CHEMBL1201862, “PubChem BioAssay data set” (2004)
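A five-concentration, 48-hour dose response in 96-well plates underlies each endpoint, interpolated linearly between surrounding concentrations. Here, GI50 denotes the concentration required for 50% inhibition of growth.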 Calls of active or inactive are those of the source. Rule as the data show it: active = GI50 up to about 1.1 µM and inactive = higher.

Experiments:
Assay in all cases: DTP human tumour cell line panel, 48 h
A498 = tested on: A498
COLO 205 = tested on: COLO 205
EKVX = tested on: EKVX
HL-60 = tested on: HL-60
HOP-62 = tested on: HOP-62
HT-29 = tested on: HT-29
LXFL 529 = tested on: LXFL 529
MOLT-4 = tested on: MOLT-4
OVCAR-5 = tested on: OVCAR-5
SF-268 = tested on: SF-268
SF-539 = tested on: SF-539
SK-MEL-2 = tested on: SK-MEL-2
SNB-19 = tested on: SNB-19
SNB-75 = tested on: SNB-75
UACC-257 = tested on: UACC-257
UO-31 = tested on: UO-31
Hs-578T = tested on: Hs-578T
MDA-MB-435 = tested on: MDA-MB-435
NCI/ADR-RES = tested on: NCI/ADR-RES
T47D = tested on: T47D

SMILES	GI50 (A498)	GI50 (COLO 205)	GI50 (EKVX)	GI50 (HL-60)	GI50 (HOP-62)	GI50 (HT-29)	GI50 (LXFL 529)	GI50 (MOLT-4)	GI50 (OVCAR-5)	GI50 (SF-268)	GI50 (SF-539)	GI50 (SK-MEL-2)	GI50 (SNB-19)	GI50 (SNB-75)	GI50 (UACC-257)	GI50 (UO-31)	GI50 (Hs-578T)	GI50 (MDA-MB-435)	GI50 (NCI/ADR-RES)	GI50 (T47D)
CCOC(=O)NN(C(=O)OCC)C(C(=O)c1ccc(Cl)cc1)=C1NCCN1	> 100 µM (inactive)	> 100 µM (inactive)	> 100 µM (inactive)	> 100 µM (inactive)	> 100 µM (inactive)	> 100 µM (inactive)	> 100 µM (inactive)	> 100 µM (inactive)	> 100 µM (inactive)	> 100 µM (inactive)	> 100 µM (inactive)	> 100 µM (inactive)	> 100 µM (inactive)	52.4 µM (inactive)	> 100 µM (inactive)	> 100 µM (inactive)				
CCC12C=CCN3CCC4(C(=C(C(=O)OC)C1)Nc1ccccc14)[C@H]32 (stereo not given in full)	29.6 µM (inactive)	18.4 µM (inactive)	51.1 µM (inactive)	16 µM (inactive)		22.6 µM (inactive)	31.6 µM (inactive)	26.7 µM (inactive)	70.8 µM (inactive)	19.5 µM (inactive)	20.5 µM (inactive)	19.1 µM (inactive)	26.6 µM (inactive)	22 µM (inactive)	34.4 µM (inactive)	65.2 µM (inactive)				
COc1cccc2c1C(=O)c1c(O)c3c(c(O)c1C2=O)C[C@@](O)(C(C)=O)C[C@@H]3OC1CC(N(Cc2ccccc2)Cc2ccccc2)C(O)C(C)O1 (stereo not given in full)	28.5 µM (inactive)	14.6 µM (inactive)	39.4 µM (inactive)	9.55 µM (inactive)	18.8 µM (inactive)	0.474 µM (active)	0.69 µM (active)		20.5 µM (inactive)	14.2 µM (inactive)	10.9 µM (inactive)	16.8 µM (inactive)	21.7 µM (inactive)	30.1 µM (inactive)	26.4 µM (inactive)	15 µM (inactive)	16.9 µM (inactive)	4.53 µM (inactive)	10.3 µM (inactive)	11.9 µM (inactive)
C/N=c1\ss/c(=N\C(=S)N(C)C)n1C	> 100 µM (inactive)		> 100 µM (inactive)	> 100 µM (inactive)	> 100 µM (inactive)	> 100 µM (inactive)	> 100 µM (inactive)	> 100 µM (inactive)	> 100 µM (inactive)	> 100 µM (inactive)	> 100 µM (inactive)	> 100 µM (inactive)	> 100 µM (inactive)	> 100 µM (inactive)	> 100 µM (inactive)	> 100 µM (inactive)				
CCC12C=CCN3CCC4(c5cc(C6(C(=O)OC)CCCCCc7c6[nH]c6ccccc76)c(OC)cc5N(C)C4C(O)(C(=O)OC)C1OC(C)=O)C32 (stereo not given)	2.4 µM (inactive)	2.93 µM (inactive)	3.57 µM (inactive)	2.29 µM (inactive)	3.72 µM (inactive)	0.562 µM (active)	1.84 µM (inactive)	2.14 µM (inactive)	1.9 µM (inactive)	2.95 µM (inactive)	2.25 µM (inactive)	1.74 µM (inactive)	3.15 µM (inactive)	2.3 µM (inactive)		2 µM (inactive)				
CO[C@@]12CC(=O)/C(=C(O)\C=C\c3ccccc3)C(=O)[C@]1(OC)Cc1ccccc1O2	33.3 µM (inactive)	47.5 µM (inactive)	38.5 µM (inactive)		21.6 µM (inactive)	37.5 µM (inactive)	33.7 µM (inactive)	29.7 µM (inactive)	41.7 µM (inactive)	27.7 µM (inactive)	24 µM (inactive)	36.8 µM (inactive)	30.1 µM (inactive)	77.1 µM (inactive)	30.1 µM (inactive)	40 µM (inactive)				
CCOc1ccc(NC2=NC(=O)C(CC(=O)Nc3ccccc3[N+](=O)[O-])S2)cc1 (stereo not given)	> 100 µM (inactive)		> 100 µM (inactive)	> 100 µM (inactive)		> 100 µM (inactive)	> 100 µM (inactive)	> 100 µM (inactive)	> 100 µM (inactive)	> 100 µM (inactive)	> 100 µM (inactive)	> 100 µM (inactive)	> 100 µM (inactive)	> 100 µM (inactive)	> 100 µM (inactive)	> 100 µM (inactive)				
COC1=CCC=C(C[C@@H]2NCCc3cc(OC)c(OC)cc32)C1	> 100 µM (inactive)	> 100 µM (inactive)	> 100 µM (inactive)	> 100 µM (inactive)	> 100 µM (inactive)	> 100 µM (inactive)	> 100 µM (inactive)	> 100 µM (inactive)	> 100 µM (inactive)	> 100 µM (inactive)	> 100 µM (inactive)	> 100 µM (inactive)	> 100 µM (inactive)	> 100 µM (inactive)	> 100 µM (inactive)	> 100 µM (inactive)				
CCNC1C2(CCCCC2)NC(=O)C12CCCCC2 (stereo not given)	> 100 µM (inactive)		> 100 µM (inactive)	> 100 µM (inactive)	> 100 µM (inactive)	> 100 µM (inactive)	> 100 µM (inactive)	> 100 µM (inactive)	> 100 µM (inactive)		> 100 µM (inactive)	> 100 µM (inactive)		> 100 µM (inactive)	> 100 µM (inactive)	> 100 µM (inactive)				
Nc1nc(N)c(-c2ccccc2)c(CCC(=O)Nc2ccc(Cl)cc2)n1	> 100 µM (inactive)	> 100 µM (inactive)	> 100 µM (inactive)	> 100 µM (inactive)	> 100 µM (inactive)	> 100 µM (inactive)	> 100 µM (inactive)	> 100 µM (inactive)	> 100 µM (inactive)	> 100 µM (inactive)	> 100 µM (inactive)	> 100 µM (inactive)	> 100 µM (inactive)	> 100 µM (inactive)	> 100 µM (inactive)	> 100 µM (inactive)				
Cc1cc(C)n(-c2ccnc3cc(Cl)ccc23)n1	> 100 µM (inactive)	> 100 µM (inactive)	> 100 µM (inactive)	> 100 µM (inactive)	> 100 µM (inactive)	> 100 µM (inactive)	> 100 µM (inactive)	> 100 µM (inactive)	> 100 µM (inactive)	> 100 µM (inactive)	> 100 µM (inactive)	> 100 µM (inactive)	> 100 µM (inactive)	> 100 µM (inactive)	> 100 µM (inactive)	91.6 µM (inactive)				
O=C(O)C1C2CCC(O2)C1C(=O)N1CCCCC1 (stereo not given)	1.28 µM (inactive)	1.95 µM (inactive)	4.02 µM (inactive)		12.7 µM (inactive)	4.07 µM (inactive)	5.02 µM (inactive)	5.06 µM (inactive)	26.5 µM (inactive)	13.2 µM (inactive)	9.4 µM (inactive)	8.17 µM (inactive)	15.5 µM (inactive)	4.51 µM (inactive)	17.2 µM (inactive)	19.9 µM (inactive)				
CCOC(=O)NC(=O)c1cn(C2OC(COC(=O)CCCCCCCCC(=O)OCC3OC(n4cc(C(=O)NC(=O)OCC)c(=O)[nH]c4=O)C4OC(C)(C)OC34)C3OC(C)(C)OC32)c(=O)[nH]c1=O (stereo not given)	> 100 µM (inactive)		> 100 µM (inactive)	63.5 µM (inactive)	> 100 µM (inactive)	79.8 µM (inactive)	88.5 µM (inactive)	35.6 µM (inactive)	> 100 µM (inactive)	70.5 µM (inactive)	> 100 µM (inactive)	52.1 µM (inactive)	51.6 µM (inactive)	56.9 µM (inactive)	> 100 µM (inactive)	> 100 µM (inactive)				
O=[As](O)(O)c1cc(/N=N/c2ccc(-c3ccc(/N=N/c4cc([As](=O)(O)O)c(O)cc4O)cc3)cc2)c(O)cc1O	> 56 µM (inactive)	> 100 µM (inactive)	> 100 µM (inactive)	> 48.8 µM (inactive)	> 100 µM (inactive)	> 95.1 µM (inactive)	> 100 µM (inactive)	> 100 µM (inactive)	> 69.5 µM (inactive)	> 100 µM (inactive)	> 74.1 µM (inactive)	> 100 µM (inactive)	> 100 µM (inactive)	> 100 µM (inactive)	> 100 µM (inactive)	> 100 µM (inactive)				
Cc1csc(=S)n1OC(=O)NC1CCCCC1	> 92.5 µM (inactive)		> 100 µM (inactive)	17.9 µM (inactive)	> 100 µM (inactive)	> 48.9 µM (inactive)	13.8 µM (inactive)	9.77 µM (inactive)		> 87.1 µM (inactive)	> 100 µM (inactive)	68.4 µM (inactive)	> 100 µM (inactive)	> 79.4 µM (inactive)	> 60.1 µM (inactive)	> 100 µM (inactive)				
